Results published in PubChem BioAssay AID292 (DTP/NCI, 2004).
Several values for one entry are separate records, joined by “and”; a condition that tells them apart may be missing. Equal entries are not always repeated. Toxic doses and inconclusive results are not listed. How the source made its calls: active means survival T/C of 150% or more; inactive means T/C below 125% in these data.

Test system: B6C3F1 mice, ip Sarcoma M5076, median survival T/C
Test: NCI In Vivo Anticancer Drug Screen. Data for tumor model Sarcoma M5076 (intraperitoneal) in B6C3F1 mice
Conditions: endpoint: median survival time, higher = longer survival
Method: The antitumor activity of compounds was measured in mice bearing transplantable tumors. Survival or tumor size were measured and the results are expressed as the measurement made in the treated group (T) divided by the measurement made in the vehicle treated control group (C). The tumor model used in this assay is Sarcoma M5076 (intraperitoneal) in B6C3F1 mice

[1] = dose: 50.0 mg/kg/injection, schedule: Q04DX004 (ip), vehicle: Klucel (hydroxypropylcellulose) (HPC)
[2] = dose: 100.0 mg/kg/injection, schedule: Q04DX004 (ip), vehicle: Klucel (hydroxypropylcellulose) (HPC)
[3] = dose: 200.0 mg/kg/injection, schedule: Q04DX004 (ip), vehicle: Klucel (hydroxypropylcellulose) (HPC)
[4] = dose: 400.0 mg/kg/injection, schedule: Q04DX004 (ip), vehicle: Klucel (hydroxypropylcellulose) (HPC)
[5] = dose: 25.0 mg/kg/injection, schedule: Q04DX004 (ip), vehicle: saline with Tween-80
[6] = dose: 50.0 mg/kg/injection, schedule: Q04DX004 (ip), vehicle: saline with Tween-80
[7] = dose: 100.0 mg/kg/injection, schedule: Q04DX004 (ip), vehicle: saline with Tween-80
[8] = dose: 200.0 mg/kg/injection, schedule: Q04DX004 (ip), vehicle: saline with Tween-80
[9] = dose: 400.0 mg/kg/injection, schedule: Q04DX004 (ip), vehicle: saline with Tween-80
[10] = dose: 25.0 mg/kg/injection, schedule: Q04DX004 (ip), vehicle: Klucel (hydroxypropylcellulose) (HPC)
[11] = dose: 12.5 mg/kg/injection, schedule: Q04DX004 (ip), vehicle: Klucel (hydroxypropylcellulose) (HPC)
[12] = dose: 800.0 mg/kg/injection, schedule: Q04DX004 (ip), vehicle: Klucel (hydroxypropylcellulose) (HPC)
[13] = dose: 50.0 mg/kg/injection, schedule: Q04DX004 (ip), vehicle: saline
[14] = dose: 100.0 mg/kg/injection, schedule: Q04DX004 (ip), vehicle: saline
[15] = dose: 37.5 mg/kg/injection, schedule: Q04DX004 (ip), vehicle: saline with Tween-80
[16] = dose: 75.0 mg/kg/injection, schedule: Q04DX004 (ip), vehicle: saline with Tween-80
[17] = dose: 150.0 mg/kg/injection, schedule: Q04DX004 (ip), vehicle: saline with Tween-80
[18] = dose: 300.0 mg/kg/injection, schedule: Q04DX004 (ip), vehicle: saline with Tween-80
[19] = dose: 12.5 mg/kg/injection, schedule: Q04DX004 (ip), vehicle: water
[20] = dose: 25.0 mg/kg/injection, schedule: Q04DX004 (ip), vehicle: water
[21] = dose: 50.0 mg/kg/injection, schedule: Q04DX004 (ip), vehicle: water

Measured: T/C

C[C@]12C=CC(=O)C=C1CC[C@@H]1[C@@H]2C(=O)C[C@@]2(C)[C@H]1CC[C@]2(O)C(=O)CO
inactive: [1] 105 % of control and 123 % of control | [2] 118 % of control | [3] 116 % of control | [4] 94 % of control

C/C([O-])=c1\c(C)nn2ccc[n+]12
inactive: [5] 100 % of control | [6] 106 % of control | [7] 103 % of control | [8] 94 % of control

CNC(=S)C#N
inactive: dose: 12.5 mg/kg/injection, schedule: Q04DX004 (ip), vehicle: saline + Tween-80 + alcohol 90 % of control | dose: 50.0 mg/kg/injection, schedule: Q04DX004 (ip), vehicle: saline + Tween-80 + alcohol 89 % of control

CC1=CC(C)(C)N=C2SC(COc3ccccc3)=NN12
inactive: [6] 104 % of control | [7] 96 % of control | [8] 93 % of control | [9] 99 % of control

Cc1nc(N)nc(N)c1-c1ccc(Cl)c(Cl)c1
inactive: dose: 1.25 mg/kg/injection, schedule: Q04DX004 (ip), vehicle: saline 105 % of control | dose: 2.5 mg/kg/injection, schedule: Q04DX004 (ip), vehicle: saline 100 % of control | dose: 5.0 mg/kg/injection, schedule: Q04DX004 (ip), vehicle: saline 102 % of control | dose: 10.0 mg/kg/injection, schedule: Q04DX004 (ip), vehicle: saline 113 % of control

CCN(CC)CCOC(=O)c1c(C)oc2cc3c(C(=O)OCCN(CC)CC)c(C)oc3cc12
inactive: [10] 105 % of control | [1] 99 % of control | [2] 109 % of control | [3] 104 % of control | [4] 106 % of control

O=C1C=CC(O)N1 (configuration not stated)
inactive: dose: 10.0 mg/kg/injection, schedule: Q01DX009 (ip), vehicle: water 95 % of control | dose: 20.0 mg/kg/injection, schedule: Q01DX009 (ip), vehicle: water 101 % of control | dose: 40.0 mg/kg/injection, schedule: Q01DX009 (ip), vehicle: water 101 % of control | dose: 80.0 mg/kg/injection, schedule: Q01DX009 (ip), vehicle: water 101 % of control | dose: 160.0 mg/kg/injection, schedule: Q01DX009 (ip), vehicle: water 94 % of control

CN(C)N=Nc1ccc(C(N)=O)cc1
inactive: [5] 120 % of control and 121 % of control | [9] 109 % of control
active: [7] 151 % of control | [8] 163 % of control

O=C(O)c1nn(-c2ccccc2-c2n[nH]c(=O)[nH]c2=O)c(=O)[nH]c1=O
inactive: [6] 101 % of control | [7] 100 % of control | [8] 92 % of control

Nc1nc([Se]c2nc(N)nc3c2ncn3C2OC(CO)C(O)C2O)c2ncn(C3OC(CO)C(O)C3O)c2n1 (configuration not stated)
inactive: dose: 25.0 mg/kg/injection, schedule: Q04DX004 (ip), vehicle: distilled water + Tween-80 123 % of control
active: dose: 100.0 mg/kg/injection, schedule: Q04DX004 (ip), vehicle: distilled water + Tween-80 159 % of control | dose: 200.0 mg/kg/injection, schedule: Q04DX004 (ip), vehicle: distilled water + Tween-80 157 % of control and 177 % of control

CN(C)N=Nc1ccccc1
inactive: [11] 113 % of control
active: [10] 159 % of control | [1] 187 % of control | [2] 156 % of control

CC(CNC(=O)C12CC3CC(CC(C3)C1)C2)NC(=O)C12CC3CC(CC(C3)C1)C2 (configuration not stated)
inactive: dose: 25.0 mg/kg/injection, schedule: Q04DX004 (ip), vehicle: other 94 % of control | dose: 50.0 mg/kg/injection, schedule: Q04DX004 (ip), vehicle: other 98 % of control | dose: 100.0 mg/kg/injection, schedule: Q04DX004 (ip), vehicle: other 90 % of control | dose: 200.0 mg/kg/injection, schedule: Q04DX004 (ip), vehicle: other 98 % of control

N#CC1C(=O)NC(=O)C(C#N)C1c1c2ccccc2cc2ccccc12 (configuration not stated)
inactive: [1] 96 % of control | [2] 103 % of control | [3] 94 % of control | [4] 106 % of control | [12] 102 % of control

C=C(c1ccc(OC)c(OC)c1)c1nccc2cc(OC)c(OC)cc12
inactive: [2] 102 % of control | [3] 119 % of control | [4] 98 % of control | [12] 102 % of control

NCCCC(N)(C(=O)O)C(F)F (configuration not stated)
inactive: [13] 96 % of control | [14] 99 % of control | dose: 200.0 mg/kg/injection, schedule: Q04DX004 (ip), vehicle: saline 99 % of control | dose: 400.0 mg/kg/injection, schedule: Q04DX004 (ip), vehicle: saline 99 % of control | dose: 800.0 mg/kg/injection, schedule: Q04DX004 (ip), vehicle: saline 102 % of control

CCc1c(C)c(SC)n(C)c(=O)c1C#N
inactive: [6] 111 % of control | [7] 111 % of control | [8] 111 % of control | [9] 96 % of control

COc1cc(C2c3cc4c(cc3[C@@H](OC3OC5CO[C@@H](C)OC5C(O)C3O)[C@H]3COC(=O)C23)OCO4)cc(OC)c1OC (some centres not stated)
active: [3] 171 % of control | dose: 300.0 mg/kg/injection, schedule: Q04DX004 (ip), vehicle: suspension in saline 168 % of control | [4] 233 % of control
inactive: dose: 25.0 mg/kg/injection, schedule: Q04DX004 (ip), vehicle: saline 116 % of control | [1] 118 % of control | [13] 110 % of control | dose: 50.0 mg/kg/injection, schedule: Q04DX004 (ip), vehicle: suspension in saline 103 % of control | [14] 122 % of control | dose: 100.0 mg/kg/injection, schedule: Q04DX004 (ip), vehicle: suspension in saline 99 % of control | dose: 200.0 mg/kg/injection, schedule: Q04DX004 (ip), vehicle: suspension in saline 123 % of control

c1ccc2c(c1)-c1ccccc1C1NC21 (configuration not stated)
inactive: dose: 18.75 mg/kg/injection, schedule: Q04DX004 (ip), vehicle: saline with Tween-80 93 % of control | [15] 98 % of control | [16] 94 % of control | [17] 96 % of control | [18] 102 % of control

CC(C)(C)c1cc2c3c(c1)Oc1cc(C(C)(C)C)cc4c1C3(O)c1c(cc(C(C)(C)C)cc1O4)O2
inactive: dose: 6.25 mg/kg/injection, schedule: Q04DX004 (ip), vehicle: Klucel (hydroxypropylcellulose) (HPC) 111 % of control | dose: 9.0 mg/kg/injection, schedule: Q04DX004 (ip), vehicle: Klucel (hydroxypropylcellulose) (HPC) 113 % of control | [11] 113 % of control

COc1ccc(-n2c(CSc3ccc(Cl)cc3)n[nH]c2=S)cc1
inactive: [15] 96 % of control | [16] 101 % of control | [17] 96 % of control | [18] 87 % of control

Nc1nc2ncn(O)c2c(=O)[nH]1
inactive: dose: 3.12 mg/kg/injection, schedule: Q04DX004 (ip), vehicle: water 100 % of control | dose: 6.25 mg/kg/injection, schedule: Q04DX004 (ip), vehicle: water 100 % of control | [19] 97 % of control | [20] 93 % of control | [21] 101 % of control

Cc1cc2nncn2c2nnnn12
inactive: [19] 101 % of control | [20] 98 % of control | [21] 95 % of control | dose: 100.0 mg/kg/injection, schedule: Q04DX004 (ip), vehicle: water 101 % of control | dose: 200.0 mg/kg/injection, schedule: Q04DX004 (ip), vehicle: water 98 % of control

CCOc1cc2c(cc1C(C)c1ccc(OC)cc1)OCO2 (configuration not stated)
inactive: dose: 50.0 mg/kg/injection, schedule: Q04DX004 (ip), vehicle: distilled water + alcohol 119 % of control | dose: 100.0 mg/kg/injection, schedule: Q04DX004 (ip), vehicle: distilled water + alcohol 110 % of control | dose: 200.0 mg/kg/injection, schedule: Q04DX004 (ip), vehicle: distilled water + alcohol 123 % of control

NC(Cc1ccc[se]1)C(=O)O (configuration not stated)
inactive: dose: 12.5 mg/kg/injection, schedule: Q04DX004 (ip), vehicle: saline with Tween-80 94 % of control | [5] 103 % of control | [6] 109 % of control

CC(C)(C)c1cc(C2C(C#N)C(=O)NC(=O)C2C#N)cc(C(C)(C)C)c1O (configuration not stated)
inactive: [1] 88 % of control | [2] 97 % of control | [3] 93 % of control | [4] 95 % of control | [12] 97 % of control
